Reference: patent US20110105397A1, “METHOD FOR TREATING HEART FAILURE WITH STRESSCOPIN-LIKE PEPTIDES” (priority 2009, published 2011)
Like-named read-outs stand apart in the source and are kept apart here.

Columns and labels:
[1] = test system: isolated rat aortic rings; assay: Vascular smooth muscle relaxation, isolated rat aortic rings pre-contracted with phenylephrine
Excerpt: The ability of h-SCP (SEQ ID NO:1) to relax vascular smooth muscle was examined in isolated, rat aortic rings pre-contracted with phenylephrine (PE) (FIG. 8). […] The responses caused by h-SCP (SEQ ID NO:1) were inhibited by anti-sauvagine-30 (SEQ ID NO:118).

[2] = test system: Langendorff perfused rabbit heart; assay: Retrograde-perfused Langendorff rabbit heart assay; conditions: bolus into the perfusion block
Description: The effect of h-SCP (SEQ ID NO:1) on heart rate (HR), left ventricular (LV) contraction, and vascular tone was assessed in a retrograde-perfused Langendorff rabbit heart assay.

[3] = test system: anaesthetized male Sprague-Dawley rats; assay: Hemodynamics in anaesthetized rats (IV bolus); assay type: in vivo, rat; conditions: IV bolus 0.13 μg/kg to 44 μg/kg
Description: The hemodynamic profile of h-SCP (SEQ ID NO:1) was determined in sodium pentobarbital anaesthetized male Sprague-Dawley rats (FIG. 10). A SPR-320 Mikro-Tip® integrated catheter-tipped micro-manometer (Millar Instruments, Houston, Tex., U.S.A.) was placed in the right femoral artery for blood pressure measurements, and another one directly in the left ventricle for LV pressure measurement. […] The changes in hemodynamic parameters induced by h-SCP (SEQ ID NO:1, full circle in FIG. 10) were blocked by pretreatment with anti-sauvagine-30 (SEQ ID NO:118, open circle in FIG. 10).

[4] = in vivo; conditions: mongrel, dog, iv, [SEQ ID NO: 1] plasma concentration
Description: (§1) A sandwich immunoassay was developed using an affinity purified goat polyclonal antibody, specific to h-SCP that was pre-coated onto a microplate with integrated electrodes. h-SCP molecules present in the sample will bind to the capture polyclonal antibody coated on the plate. After washing away any unbound substances, a sulfo-tagged mouse monoclonal anti-h-SCP antibody was added. This conjugated antibody will bind to the h-SCP molecules captured on the microplate and the quantity of analyte was determined by electrochemiluminescence. The amount of signal generated is directly proportional to the h-SCP concentration in the sample or standard. The standard curve range is 3.125-1600 pg/mL with a quantifiable range from 10-800 pg/mL. A sample volume of 25 μL (in duplicate) is required for this assay. This immunoassay is specific for human and dog stresscopin and human urocortin III (h-UCN3). […] After completion of the analysis, based on a comparison of reference standards between the ELISA and HPLC method, a correction factor of 1.57 was applied to all bioanalytical data.
The effects of h-SCP (SEQ ID NO:1) on cardiovascular function were also assessed in anaesthetized dogs with advanced, irreversible heart failure of ischemic etiology (Sabbah et al., 1991, Am. J. Physiol., vol. 260, pp. H1379-H1384; Sabbah et al., 1994, Circulation, vol. 98, pp. 2852-2859; Chandler et al., 2002, Circ. Res., vol. 91, pp. 278-280). Progressive, advanced heart failure was produced in mongrel dogs by multiple sequential intracoronary microembolization with polystyrene latex microspheres. Dose infusions of 2.2, 4.3, and 7.3 ng/kg/min were administered intravenously over 60 minutes just following or just prior to hemodynamic, angiographic, echocardiographic, and Doppler measurements using conventional hemodynamic, angiographic, echocardiographic, and radiographic methods. The h-SCP polypeptide (SEQ ID NO:1) produced dose- (infusion-) dependent increases in LVEF and SV and decreases in left ventricular end diastolic pressure (LVEDP), left ventricular pressure during isovolumic relaxation (LV-dP/dt), systemic vascular resistance (SVR), and left ventricular end-systolic volume (LVESV) that correlated with plasma concentration. No significant change in heart rate, peak systolic aortic blood pressure, LV+dP/dt, mean pulmonary artery pressure, mean pulmonary artery wedge pressure, right atrial pressure, or myocardial oxygen consumption were recorded following any of the 1 hour intravenous infusions (Table 18 and FIGS. 12 A & B). The improvement in LV systolic and diastolic function was not associated with the development of de novo ventricular arrhythmias.
In order to determine the threshold effective dose-infusion in dogs with advanced heart failure, a further study was performed at lower dose infusions. In addition, the opportunity was taken to explore whether the increase in LVEF produced by higher dose-infusions of 4.3 ng/kg/min would remain stable over a longer infusion period, i.e. 120 minutes.

[5] = Nonclinical pharmacokinetics in dogs; parameters: species or system dog; conditions: in vivo; for Cmax: read-out: Cmax
Description: as §1
The nonclinical pharmacokinetics of h-SCP (SEQ ID NO:1) and pegylated stresscopin-like peptides were studied in rats, dogs, and cynomolgus monkeys (cyno). Nonclinical pharmacokinetic studies focused on characterization of IV infusion at pharmacologically relevant dose levels, supplemented with IV and SC bolus and toxicokinetic analysis.

[6] = test system: healthy subjects; assay: Human hemodynamics, healthy subjects, 24- and 72-hour continuous IV infusion, 54 ng/kg/min; assay type: in vivo
Description: Efficacy was based on the pharmacodynamic evaluation of hemodynamics, which was monitored using the noninvasive technique of impedance cardiography. Heart rate values were collected by impedance cardiography measurements. It was noted that the heart rate of subjects receiving placebo were elevated on the day of their infusions, at baseline before the infusion, and for the first 3 to 4 hours after the infusions were started (FIG. 17). Based on this observation, it appeared that there was a potential effect of period on the observed heart rate.
Healthy subjects who received placebo had heart rates that decreased compared with baseline during the infusion.

[7] = male, dog IV infusion 3 hours, M, 3.33 ng/kg/min
[8] = male, dog IV infusion 3 hours, M, 8.33 ng/kg/min
[9] = male, dog IV infusion 3 hours, M, 16.7 ng/kg/min
[10] = male, dog IV infusion 3 hours, M, 33.3 ng/kg/min

## H-TKFTLSLDVPTNIMNLLFNIAKAKNLRAQAAANAHLMAQI-NH2 [SEQ ID NO: 1, TKFTLSLDVPTNIMNLLFNIAKAKNLRAQAAANAHLMAQI-NH2]
[1]
  fold less potent than h-UCN2: 10 fold
[1]; rat aortic rings pre-contracted with phenylephrine
  pA50 of relaxation: 6.05±0.12
[2]; read-out: concentration for 50% response, decrease in coronary perfusion pressure (CPP)
  EC50: 46 nM
[2]; read-out: concentration for 50% response, increase in heart rate
  EC50: 52 nM
[2]; read-out: concentration for 50% response, increase in left ventricular developed pressure (dP/dtmax)
  EC50: 9.9 nM
[3]
  hemodynamic profile: dose-dependent increases in heart rate, LV developed pressure (+dP/dt), and a corresponding decrease in blood pressure
[4]; 0.22 ng/kg/min
  level at 1 h: 0.0412 ± 0.0149 ng/mL
  level at time molar at 1 h: 0.0094 ± 0.0034 nM
[4]; 0.43 ng/kg/min
  level at 1 h: 0.0372 ± 0.0139 ng/mL
  level at time molar at 1 h: 0.0085 ± 0.0032 nM
[4]; 2.2 ng/kg/min
  level at 1 h: 0.141 ± 0.0182 ng/mL
  level at time molar at 1 h: 0.0324 ± 0.0042 nM
[4]; 4.3 ng/kg/min
  level at 1 h: 0.178 ± 0.0211 ng/mL
  level at 2 h: 0.249 ± 0.0479 ng/mL
  level at time molar at 1 h: 0.0408 ± 0.0048 nM
  level at time molar at 2 h: 0.057 ± 0.011 nM
[4]; 7.3 ng/kg/min
  level at 1 h: 0.279 ± 0.0296 ng/mL
  level at time molar at 1 h: 0.0639 ± 0.0068 nM
[5]; dog, dogs, two-compartment analysis, read-out: alpha-phase half-life (t1/2 alpha)
  half-life: 10 to 20 min
[5]; dog, dogs, read-out: terminal phase half-life (converted)
  half-life: ~60 min
[5]; dog, iv
  time to apparent steady-state plasma concentration after initiation of infusion: ≤ 1 h
[5]; dog, dogs, 3.3 to 33.3 ng/kg/min, read-out: plasma clearance
  clearance: ~4 mL/min/kg
[5]; male, dog, iv, 33.3 ng/kg/min, dog IV infusion 3 hours, M, 33.3 ng/kg/min, read-out: t1/2 alpha
  half-life: 13.7 min
[5]; male, dog, iv, 33.3 ng/kg/min, dog IV infusion 3 hours, M, 33.3 ng/kg/min, read-out: t1/2 terminal
  half-life: 65.3 min
[5]; male, dog, iv, Vss
  Vd: 0.216 L/kg
[5]; male, dog, iv, t1/2 alpha
  half-life: 15.9 min
[5]; male, dog, iv, t1/2 terminal
  half-life: 59.6 min
[5]; [7]
  AUC(0-inf): 2.34 ng·h/mL
  Cmax: 0.814 ng/mL
[5]; male, dog IV infusion 3 hours, M, 3.33 ng/kg/min, read-out: CL
  clearance: 4.28 mL/min/kg
[5]; [8]
  AUC(0-inf): 6.46 ng·h/mL
  Cmax: 2.38 ng/mL
[5]; male, dog IV infusion 3 hours, M, 8.33 ng/kg/min, read-out: CL
  clearance: 3.87 mL/min/kg
[5]; [9]
  AUC(0-inf): 12.8 ng·h/mL
  Cmax: 5.05 ng/mL
[5]; male, dog IV infusion 3 hours, M, 16.7 ng/kg/min, read-out: CL
  clearance: 3.99 mL/min/kg
[5]; [10]
  AUC(0-inf): 26.4 ng·h/mL
  Cmax: 10 ng/mL
[5]; male, dog IV infusion 3 hours, M, 33.3 ng/kg/min, read-out: CL
  clearance: 3.95 mL/min/kg
[5]; male, dog IV infusion 3 hours, M, 33.3 ng/kg/min, read-out: Vss
  Vd: 0.161 L/kg
[6]
  time in which the increase in heart rate occurred: ≤ 15 min
